Measurements published in patent US20240197680A1, “VORUCICLIB DOSING REGIMENS AND METHODS OF TREATMENT INCLUDING THE SAME” (MEI Pharma, Inc., priority 2021, published 2024).
Where two headings read alike, the source gives them in different places.

Legend:
Assay type in all cases: physicochemical
[1] = Hygroscopicity of voruciclib malonate
[2] = pH range solubility in biorelevant media
Protocol: In general, voruciclib was more prone to gel at suspension concentrations >5 mg/mL and solubilities >0.5 mg/mL.

[3] = pKa of voruciclib malonate
[4] = Gelling in aqueous media; details: in water or aqueous buffers across the pH range
Protocol: Voruciclib can form a gel when dissolved in various media, depending on the other chemicals present. […] In general, voruciclib was more prone to gel at suspension concentrations >5 mg/mL and solubilities >0.5 mg/mL.

[5] = Stability of voruciclib malonate Batch 02MEI06-01-107; parameters: key to Organic Impurities by HPLC: RRT 1.05: —: below reporting threshold
Description: The formulation contains colloidal silicon dioxide. The manufacturing process for this batch was similar to that described in Example 10. Stability study samples were packaged in the containers described in Example 9.

CN1CC[C@@H](c2c(O)cc(O)c3c(=O)cc(-c4ccc(C(F)(F)F)cc4Cl)oc23)[C@@H]1CO.O=C(O)CC(=O)O [Voruciclib Malonate, (2R,3S)-3-(2-(2-chloro-4-(trifluoromethyl)phenyl)-5,7-dihydroxy-4-oxo-4H-chromen-8-yl)-2-(hydroxymethyl)-1-methylpyrrolidin-1-ium-2-carboxyacetate]
Hygroscopicity [1]: Non-hygroscopic | Hygroscopicity ([1]; listed as Form 1): non-hygroscopic | solubility ([2]; FEDGAS biorelevant medium, pH 3, fassgf or other biorelevant, thermodynamic from solid, pH 3.0 (FEDGAS), late stage of stomach emptying, read-out: Solubility): 11300 µg/mL | solubility ([2]; FEDGAS biorelevant medium, pH 4.5, fassgf or other biorelevant, thermodynamic from solid, pH 4.5 (FEDGAS), mid stage of stomach emptying, read-out: Solubility): 4350 µg/mL | solubility ([2]; FEDGAS biorelevant medium, pH 6, fassgf or other biorelevant, thermodynamic from solid, pH 6.0 (FEDGAS), early stage of stomach emptying, read-out: Solubility): 2880 µg/mL | solubility ([2]; FaSSGF biorelevant medium, pH 1.6, fassgf or other biorelevant, thermodynamic from solid, pH 1.6 (FaSSGF), Stomach after glass of water, tested in duplicate, read-out: Solubility): > 13400 µg/mL | solubility ([2]; FaSSIF biorelevant medium, pH 6.5, fassif, thermodynamic from solid, pH 6.5 (FaSSIF), Upper intestine after a glass of water, read-out: Solubility): 230 µg/mL | solubility ([2]; FeSSIF biorelevant medium, pH 5, fessif, thermodynamic from solid, pH 5.0 (FeSSIF), Upper intestine after a meal, read-out: Solubility): < 4 µg/mL | solubility ([2]; pH 1.6 (FaSSGF), Stomach after glass of water, tested in duplicate): 11050 µg/mL | pKa ([3]; first value listed): 6.46 | pKa ([3]; second value listed): 9.59 | pKa ([3]; third value listed): 12.1 | gel formation [4]: does not form a gel | changes observed after storage ([5]; 6-months at 25° C./60% RH or 6-months at 40° C./75% RH): No significant changes | Appearance by visual inspection ([5]; 25° C./60% RH, 1 months): Light | Assay by HPLC (% w/w, as is) ([5]; 25° C./60% RH, 1 months): 96.8 % w/w | Organic Impurities by HPLC: RRT 0.83 ([5]; 25° C./60% RH, 1 months): 0.06 % area | Organic Impurities by HPLC: RRT 0.97 ([5]; 25° C./60% RH, 1 months): 0.55 % area | Organic Impurities by HPLC: RRT 0.99 ([5]; 25° C./60% RH, 1 months): 0.59 % area | Organic Impurities by HPLC: RRT 1.05 ([5]; 25° C./60% RH, 1 months): 0.09 % area | Organic Impurities by HPLC: RRT 1.06 ([5]; 25° C./60% RH, 1 months): 0.08 % area | Purity by HPLC ([5]; 25° C./60% RH, 1 months): 98.6 % area | Total Impurities ([5]; 25° C./60% RH, 1 months): 1.38 % area | Water Content by KF ([5]; 25° C./60% RH, 1 months): 0.47 % w/w | XRPD ([5]; 25° C./60% RH, 1 months): Crystalline | Appearance by visual inspection ([5]; 25° C./60% RH, 3 months): Light | Assay by HPLC (% w/w, as is) ([5]; 25° C./60% RH, 3 months): 97.3 % w/w | Organic Impurities by HPLC: RRT 0.83 ([5]; 25° C./60% RH, 3 months): 0.06 % area | Organic Impurities by HPLC: RRT 0.97 ([5]; 25° C./60% RH, 3 months): 0.56 % area | Organic Impurities by HPLC: RRT 0.99 ([5]; 25° C./60% RH, 3 months): 0.59 % area | Organic Impurities by HPLC: RRT 1.05 ([5]; 25° C./60% RH, 3 months): 0.06 % area | Organic Impurities by HPLC: RRT 1.06 ([5]; 25° C./60% RH, 3 months): 0.08 % area | Purity by HPLC ([5]; 25° C./60% RH, 3 months): 98.7 % area | Total Impurities ([5]; 25° C./60% RH, 3 months): 1.36 % area | Water Content by KF ([5]; 25° C./60% RH, 3 months): 0.18 % w/w | XRPD ([5]; 25° C./60% RH, 3 months): Crystalline | Appearance by visual inspection ([5]; 25° C./60% RH, 6 months): Light | Assay by HPLC (% w/w, as is) ([5]; 25° C./60% RH, 6 months): 97.7 % w/w | Organic Impurities by HPLC: RRT 0.83 ([5]; 25° C./60% RH, 6 months): 0.05 % area | Organic Impurities by HPLC: RRT 0.97 ([5]; 25° C./60% RH, 6 months): 0.52 % area | Organic Impurities by HPLC: RRT 0.99 ([5]; 25° C./60% RH, 6 months): 0.58 % area | Organic Impurities by HPLC: RRT 1.05 ([5]; 25° C./60% RH, 6 months): 0.05 % area | Organic Impurities by HPLC: RRT 1.06 ([5]; 25° C./60% RH, 6 months): 0.08 % area | Purity by HPLC ([5]; 25° C./60% RH, 6 months): 98.7 % area | Total Impurities ([5]; 25° C./60% RH, 6 months): 1.32 % area | Water Content by KF ([5]; 25° C./60% RH, 6 months): 0.36 % w/w | XRPD ([5]; 25° C./60% RH, 6 months): Crystalline | Appearance by visual inspection ([5]; 25° C./60% RH, Initial): Pale | Assay by HPLC (% w/w, as is) ([5]; 25° C./60% RH, Initial): 96.9 % w/w | Organic Impurities by HPLC: RRT 0.83 ([5]; 25° C./60% RH, Initial): 0.06 % area | Organic Impurities by HPLC: RRT 0.97 ([5]; 25° C./60% RH, Initial): 0.55 % area | Organic Impurities by HPLC: RRT 0.99 ([5]; 25° C./60% RH, Initial): 0.62 % area | Organic Impurities by HPLC: RRT 1.05 ([5]; 25° C./60% RH, Initial): 0.15 % area | Organic Impurities by HPLC: RRT 1.06 ([5]; 25° C./60% RH, Initial): 0.11 % area | Purity by HPLC ([5]; 25° C./60% RH, Initial): 98.5 % area | Total Impurities ([5]; 25° C./60% RH, Initial): 1.53 % area | Water Content by KF ([5]; 25° C./60% RH, Initial): 0.56 % w/w | XRPD ([5]; 25° C./60% RH, Initial): Crystalline | Appearance ([5]; 40° C./75% RH, 1 months): Light | Assay by HPLC (% w/w. as is) ([5]; 40° C./75% RH, 1 months): 96.4 % w/w | Organic Impurities by HPLC: RRT 0.83 ([5]; 40° C./75% RH, 1 months): 0.06 % Area | Organic Impurities by HPLC: RRT 0.97 ([5]; 40° C./75% RH, 1 months): 0.56 % Area | Organic Impurities by HPLC: RRT 0.99 ([5]; 40° C./75% RH, 1 months): 0.58 % Area | Organic Impurities by HPLC: RRT 1.05 ([5]; 40° C./75% RH, 1 months): 0.06 % Area | Organic Impurities by HPLC: RRT 1.06 ([5]; 40° C./75% RH, 1 months): 0.08 % Area | Purity by HPLC ([5]; 40° C./75% RH, 1 months): 98.7 % area | Total Impurities ([5]; 40° C./75% RH, 1 months): 1.33 % area | Water Content by KF ([5]; 40° C./75% RH, 1 months): 0.44 % w/w | XRPD ([5]; 40° C./75% RH, 1 months): Crystalline | Appearance ([5]; 40° C./75% RH, 3 months): Light | Assay by HPLC (% w/w. as is) ([5]; 40° C./75% RH, 3 months): 97.3 % w/w | Organic Impurities by HPLC: RRT 0.83 ([5]; 40° C./75% RH, 3 months): 0.06 % Area | Organic Impurities by HPLC: RRT 0.97 ([5]; 40° C./75% RH, 3 months): 0.56 % Area | Organic Impurities by HPLC: RRT 0.99 ([5]; 40° C./75% RH, 3 months): 0.59 % Area | Organic Impurities by HPLC: RRT 1.05 ([5]; 40° C./75% RH, 3 months): — | Organic Impurities by HPLC: RRT 1.06 ([5]; 40° C./75% RH, 3 months): 0.08 % Area | Purity by HPLC ([5]; 40° C./75% RH, 3 months): 98.7 % area | Total Impurities ([5]; 40° C./75% RH, 3 months): 1.29 % area | Water Content by KF ([5]; 40° C./75% RH, 3 months): 0.14 % w/w | XRPD ([5]; 40° C./75% RH, 3 months): Crystalline | Appearance ([5]; 40° C./75% RH, 6 months): Light | Assay by HPLC (% w/w. as is) ([5]; 40° C./75% RH, 6 months): 97.5 % w/w | Organic Impurities by HPLC: RRT 0.83 ([5]; 40° C./75% RH, 6 months): 0.05 % Area | Organic Impurities by HPLC: RRT 0.97 ([5]; 40° C./75% RH, 6 months): 0.52 % Area | Organic Impurities by HPLC: RRT 0.99 ([5]; 40° C./75% RH, 6 months): 0.58 % Area | Organic Impurities by HPLC: RRT 1.05 ([5]; 40° C./75% RH, 6 months): — | Organic Impurities by HPLC: RRT 1.06 ([5]; 40° C./75% RH, 6 months): 0.08 % Area | Purity by HPLC ([5]; 40° C./75% RH, 6 months): 98.8 % area | Total Impurities ([5]; 40° C./75% RH, 6 months): 1.24 % area | Water Content by KF ([5]; 40° C./75% RH, 6 months): 0.46 % w/w | XRPD ([5]; 40° C./75% RH, 6 months): Crystalline | Appearance ([5]; 40° C./75% RH, Initial): Pale | Assay by HPLC (% w/w. as is) ([5]; 40° C./75% RH, Initial): 96.9 % w/w | Organic Impurities by HPLC: RRT 0.83 ([5]; 40° C./75% RH, Initial): 0.06 % Area | Organic Impurities by HPLC: RRT 0.97 ([5]; 40° C./75% RH, Initial): 0.55 % Area | Organic Impurities by HPLC: RRT 0.99 ([5]; 40° C./75% RH, Initial): 0.62 % Area | Organic Impurities by HPLC: RRT 1.05 ([5]; 40° C./75% RH, Initial): 0.15 % Area | Organic Impurities by HPLC: RRT 1.06 ([5]; 40° C./75% RH, Initial): 0.11 % Area | Purity by HPLC ([5]; 40° C./75% RH, Initial): 98.5 % area | Total Impurities ([5]; 40° C./75% RH, Initial): 1.53 % area | Water Content by KF ([5]; 40° C./75% RH, Initial): 0.56 % w/w | XRPD ([5]; 40° C./75% RH, Initial): Crystalline
